pKd: −log10 of the molar value.
Tests used:
COX-2 = molecular target: T1, COX-2 (Homo sapiens, UniProt P35354); assay: SPR, Biacore T200, CM5 chip, multi-cycle; format: binding
T1 construct: gene PTGS2; immobilised on CM5 chip
T1 sequence (P35354 18-604): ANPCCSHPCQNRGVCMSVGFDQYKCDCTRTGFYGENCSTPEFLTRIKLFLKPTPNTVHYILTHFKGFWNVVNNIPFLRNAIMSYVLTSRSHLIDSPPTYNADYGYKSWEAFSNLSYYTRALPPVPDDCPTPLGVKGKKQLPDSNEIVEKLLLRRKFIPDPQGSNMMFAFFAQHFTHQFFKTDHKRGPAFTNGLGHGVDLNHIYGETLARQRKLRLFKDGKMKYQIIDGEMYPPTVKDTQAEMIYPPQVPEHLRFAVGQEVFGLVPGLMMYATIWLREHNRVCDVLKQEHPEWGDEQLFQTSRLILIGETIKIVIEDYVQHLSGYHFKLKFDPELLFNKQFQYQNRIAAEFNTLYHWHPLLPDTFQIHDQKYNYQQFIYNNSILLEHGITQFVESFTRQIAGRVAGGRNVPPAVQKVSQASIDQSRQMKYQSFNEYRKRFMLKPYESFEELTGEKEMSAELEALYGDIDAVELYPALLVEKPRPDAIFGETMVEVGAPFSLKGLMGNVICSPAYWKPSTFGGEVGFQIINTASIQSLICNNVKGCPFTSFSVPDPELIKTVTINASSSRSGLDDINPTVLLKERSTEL

ALOX5 = molecular target: T2, ALOX5 (Homo sapiens, UniProt P09917); assay: SPR, Biacore T200, CM5 chip, multi-cycle; format: binding
T2 construct: immobilised on CM5 chip
T2 sequence (P09917 1-674): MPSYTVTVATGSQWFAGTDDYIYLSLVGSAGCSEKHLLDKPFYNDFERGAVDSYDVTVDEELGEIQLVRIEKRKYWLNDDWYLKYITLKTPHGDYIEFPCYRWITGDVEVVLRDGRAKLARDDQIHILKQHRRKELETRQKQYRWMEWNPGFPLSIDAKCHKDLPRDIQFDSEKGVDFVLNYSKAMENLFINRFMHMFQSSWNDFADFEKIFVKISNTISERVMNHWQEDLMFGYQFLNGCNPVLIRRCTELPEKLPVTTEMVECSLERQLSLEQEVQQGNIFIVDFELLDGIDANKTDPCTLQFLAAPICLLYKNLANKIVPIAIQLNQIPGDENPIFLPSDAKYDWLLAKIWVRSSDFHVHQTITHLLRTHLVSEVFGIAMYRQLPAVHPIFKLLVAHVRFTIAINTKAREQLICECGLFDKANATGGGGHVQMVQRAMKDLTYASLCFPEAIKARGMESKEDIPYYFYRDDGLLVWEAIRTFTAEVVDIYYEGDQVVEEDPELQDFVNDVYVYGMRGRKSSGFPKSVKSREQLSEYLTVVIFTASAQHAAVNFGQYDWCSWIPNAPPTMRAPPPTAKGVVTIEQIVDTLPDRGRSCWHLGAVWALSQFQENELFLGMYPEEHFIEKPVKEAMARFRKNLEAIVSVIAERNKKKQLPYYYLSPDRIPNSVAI

## COc1cc2c(c(OC)c1OC)-c1c(cc(OC)c(OC)c1OC)C[C@H](C)[C@H](C)C2 [Schizandrin A]
COX-2
  pKd: 4.83
ALOX5
  pKd: 4.66
